Reference: PubChem BioAssay AID2060607 (Molecular Pharmacology Branch, DTP, NCI, 2025)
“And” between values parts separate entries of the source, which are not always exact repeats. Identical values can stand only once.

Test system: 876862-298-R-J1-PDC complex spheroids, viability % test/control
Test: Anticancer human tumor 876862-298-R-J1-PDC patient-derived endometrial carcinoma cell line growth inhibition [CLK]
Settings: for viability, T/C: stronger effect = lower value; active = viability on the fitted dose curve at most 10% of control; inactive = the rest
From the text: A high-throughput screen of multi-cell type tumor spheroids was designed to identify active combinations of […] and targeted small molecules. Complex spheroids include a stromal component modeled by human endothelial cells (HUVEC) and fibroblasts modeled by human mesenchymal stem cells (MSCs). The concentration ranges selected for each drug and investigational agent were based upon clinically achievable concentrations if the clinical Cmax of the agent was known.
Compounds. The drugs and investigational agents: cirtuvivint (SM08502; NSC835563), CC-671 (NSC850746), vemurafenib (NSC761431), tapotoclax (NSC804041), sotorasib (NSC818433), adagrasib (NSC831453), MRTX-1133 (NSC836407), BAY2416964 (NSC825713), copanlisib (NSC816437), inavolisib (NSC800729), abemaciclib (NSC768073), osimertinib (NSC779217), entinostat (NSC756642), eltanexor (KPT-8602, NSC794443), venetoclax (NSC766270), ceralasertib (NSC777638), bortezomib (NSC756655), olaparib (NSC753686), talazoparib (NSC767125), alisertib (NSC759677), peposertib (NSC802822), gemcitabine (NSC613327), 5-fluorouracil (NSC19893), SN-38 (NSC673596), oxaliplatin (NSC266046), paclitaxel (NSC125973), and doxorubicin (NSC123127), were obtained from the National Cancer Institute (NCI) Developmental Therapeutics Program Chemical Repository. The FDA-approved anticancer drug set is available from the Developmental Therapeutics Program at https://dtp.cancer.gov/organization/dscb/obtaining/available plates.htm. […] The stock solutions were prepared in dimethyl sulfoxide (DMSO, Sigma-Aldrich, St. Louis, MO, cat. D2650), except for the platinum complexes which were prepared in saline (Quality Biological, Gaithersburg, MD, cat. 114-055-101), at 800-fold the tested concentration and stored at -70 degrees C prior to their use. All drugs and investigational agents were tested over a range starting from a high concentration at or near the clinical Cmax and decreasing in half-log increments. If the clinical Cmax for an agent had not been determined, the highest concentration tested was 10 microM.
Cell Culture. All cells were maintained in an incubator at 37 degrees C and 5% CO2 with 95% humidity. The PDC lines were cultured according to standard operating procedures established by the NCI PDMR. Briefly, all PDCs were thawed and cultured in Matrigel-coated flasks prepared with a working solution of 1X Ham's F-12 nutrient mix, without supplementation (Invitrogen, Waltham, MA, cat. 11765054), 100 U/mL penicillin-streptomycin (Invitrogen, cat. 15140122), and 2.5% Matrigel (Corning Inc., Corning, NY, cat. 354248) for the first three passages. The 947758-054-R-J2-PDC line was cultured in 6B/Colon 1A media, which includes advanced DMEM/F-12 (Thermo Fisher Scientific, cat. 12634028), 10 mM HEPES (Thermo Fisher Scientific, cat. 15630080), 1X GlutaMAX supplement (Thermo Fisher Scientific, cat. 35050061), 0.1 mg/mL primocin (InvivoGen, cat. ant-pm-2), 10% defined fetal bovine serum, heat inactivated (HyClone Laboratories Inc., cat. SH30070.03HI), 1.25 mM N-Acetyl-L-cysteine (Sigma-Aldrich, cat. A9165), 10 mM nicotinamide (Sigma-Aldrich, cat. N0636), 1X B-27 supplement (Thermo Fisher Scientific, cat. 17504044), 1X N-2 supplement (Thermo Fisher Scientific, cat. 17502048), and 10 microM Y-27632 dihydrochloride (Tocris Bioscience, cat. 1254). The 876862-298-R-J1-PDC was cultured in 6E media, which includes all 6B/Colon 1A media components plus 50% L-WRN conditioned media (ATCC, cat. CRL-3276), 50 ng/mL recombinant human EGF recombinant protein (hEGF; Thermo Fisher Scientific, cat. PHG0311), 10 ng/mL recombinant human fibroblast growth factor 10 (hGFG-10; PeproTech, cat. 100-26), 1 ng/mL recombinant human fibroblast growth factor 2 (hFGF-2; PeproTech, cat. 100-18B), and 1 µM prostaglandin E2 (PGE2; Tocris, cat. 2296). The 227483-062-R1-J1-PDC line was cultured in Panc media, containing all 6E components except hFGF-2, with the addition of 500 nM SB-431542 (Selleckchem, cat. S1067) and 10 nM gastrin (Tocris, cat. 3006). […]
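Also: spheroids exposed to drugs for 7 days before readout.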
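For viability, T/C in this document: 100% = DMSO vehicle control wells.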

C#Cc1c(F)ccc2cc(O)cc(-c3ncc4c(N5CC6CCC(C5)N6)nc(OCC56CCCN5CC(F)C6)nc4c3F)c12 (centres undefined)
> 10000 nM: IC50 (curve of compound)
inactive: viability, T/C (compound 0.0316 µM) 95.8% and 117% | viability, T/C (compound 0.1 µM) 100% and 96.1% | viability, T/C (compound 0.316 µM) 90.8% and 110% | viability, T/C (compound 1 µM) 92.2% and 105% | viability, T/C (compound 3.16 µM) 103% and 100% | viability, T/C (compound 10 µM) 81.8% and 86.7%

O=c1[nH]cc(F)c(=O)[nH]1 + CNC(=O)c1ccc(Nc2nc(OC3CCCC3)c3c(-c4ccc5nc(C)oc5c4)c[nH]c3n2)c(OC)c1
> 10000 nM: IC50 (curve of first compound, second compound 0.0316 µM)
< 31.6 nM: IC50 (curve of first compound, second compound 0.1 µM) | IC50 (curve of first compound, second compound 0.316 µM) | IC50 (curve of first compound, second compound 1 µM) | IC50 (curve of first compound, second compound 3.16 µM) | IC50 (curve of first compound, second compound 10 µM)
inactive: viability, T/C (second compound 0.0316 µM, first compound 0.0316 µM) 68.7% | viability, T/C (second compound 0.0316 µM, first compound 0.1 µM) 84.1% | viability, T/C (second compound 0.0316 µM, first compound 0.316 µM) 81.4% | viability, T/C (second compound 0.0316 µM, first compound 1 µM) 94.6% | viability, T/C (second compound 0.0316 µM, first compound 3.16 µM) 57.9% | viability, T/C (second compound 0.0316 µM, first compound 10 µM) 49.6% | viability, T/C (second compound 0.1 µM, first compound 0.0316 µM) 46.7% | viability, T/C (second compound 0.1 µM, first compound 0.1 µM) 49.5% | viability, T/C (second compound 0.1 µM, first compound 0.316 µM) 49.2% | viability, T/C (second compound 0.1 µM, first compound 1 µM) 45% | viability, T/C (second compound 0.1 µM, first compound 3.16 µM) 45.3% | viability, T/C (second compound 0.1 µM, first compound 10 µM) 41.6% | viability, T/C (second compound 0.316 µM, first compound 0.0316 µM) 49.7% | viability, T/C (second compound 0.316 µM, first compound 0.1 µM) 42% | viability, T/C (second compound 0.316 µM, first compound 0.316 µM) 41.9% | viability, T/C (second compound 0.316 µM, first compound 1 µM) 40.5% | viability, T/C (second compound 0.316 µM, first compound 3.16 µM) 40.1% | viability, T/C (second compound 0.316 µM, first compound 10 µM) 38.5% | viability, T/C (second compound 1 µM, first compound 0.0316 µM) 31.5% | viability, T/C (second compound 1 µM, first compound 0.1 µM) 32.2% | viability, T/C (second compound 1 µM, first compound 0.316 µM) 32.5% | viability, T/C (second compound 1 µM, first compound 1 µM) 31.1% | viability, T/C (second compound 1 µM, first compound 3.16 µM) 24% | viability, T/C (second compound 1 µM, first compound 10 µM) 24.7% | viability, T/C (second compound 3.16 µM, first compound 0.0316 µM) 25% | viability, T/C (second compound 3.16 µM, first compound 0.1 µM) 25.9% | viability, T/C (second compound 3.16 µM, first compound 0.316 µM) 22.9% | viability, T/C (second compound 3.16 µM, first compound 1 µM) 19.9% | viability, T/C (second compound 3.16 µM, first compound 3.16 µM) 18% | viability, T/C (second compound 3.16 µM, first compound 10 µM) 14.2% | viability, T/C (second compound 10 µM, first compound 0.0316 µM) 20.3% | viability, T/C (second compound 10 µM, first compound 0.1 µM) 21.2% | viability, T/C (second compound 10 µM, first compound 0.316 µM) 20.1% | viability, T/C (second compound 10 µM, first compound 1 µM) 21.6% | viability, T/C (second compound 10 µM, first compound 3.16 µM) 17.6% | viability, T/C (second compound 10 µM, first compound 10 µM) 13.6%
